Laboratory results published in patent US20260364003A1, “EYE DROP MICROSUSPENSIONS OF MTOR INHIBITORS” (OCULIS OPERATIONS SARL, priority 2022, published 2026).

Experiments:
[1] = Table 9; cited from earlier work
[2] = Physicochemical characterization of lipid microsuspensions (pH, viscosity, osmolality, particle size); conditions: Table 9, lipid microsuspension containing the drug
Description: The diameter of a particle, such as a microparticle of mTOR inhibitor in oil and cyclodextrin/lipid complexes, can correspond to the D50 diameter of the particle. Diameter D50 is also known as the median diameter or the medium value of the particle size distribution. Diameter D50 corresponds to the value of the particle diameter at 50% in the cumulative distribution. For example, if D50 is 5 μm, then 50% of the particles in the sample are larger than 5 μm, and 50% smaller than 5 μm. Diameter D50 is usually used to represent the particle size of a group of particles.
The diameter and/or size of a particle can be measured according to any method known to those of ordinary skill in the art. For example, the diameter D50 is measured by laser diffraction particle size analysis. […] In particular, persons of ordinary skill in this field know that the physical properties (e.g. particle size, diameter, average diameter, mean particle size, etc.) are typically evaluated/measured using such limited, typical known techniques.
In specific embodiments, the particle size is measured by laser diffraction particle size analysis according to Pharm. […]
Following is a general procedure for preparation of a non-sterile lipid microsuspension at laboratory scale and for a total batch size of 100 g:
First, appropriate quantity of castor oil containing the dissolved drug-substance (i.e., everolimus) is transferred into a glass container. Second, under stirring with a magnetic stirrer aqueous α-cyclodextrin solution is added to the container. Third, aqueous solution containing EDTA and glycerol is added. Fourth, aqueous solution of Kolliphor HS15 is added. Mixing is continued for about 10 minutes before the stirring bar is removed and the suspension formed mixed with a high-shear homogenizer probe (Ultra-Turrax® T25 homogenizer, IKA-Werke, Germany, with probe IKA-S-25N-18G) operated at 8,000 RPM for about 10 minutes. […] The pH is adjusted to 5.3±0.1 with concentrated hydrochloric acid solution and/or sodium hydroxide solution. Finally, if needed, purified water is added to adjust the final weight of the sample to 100%.
The mixture obtained was homogenized for 10 minutes at 12,000 rpm using Ultra-Turrax® high shear homogenizer with S25N-18G probe at 12,000 rpm for 10 minutes. […] The lipid microsuspension formed was stirred by magnetic stirrer for 30 minutes at room temperature. Finally, the pH was adjusted by addition of hydrochloric acid and/or sodium hydroxide. […]

[3] = from the microemulsion; cited from earlier work
[4] = cited from earlier work; for chemical stability of derivative: sirolimus derivatives
[5] = room temperature; cited from earlier work
[6] = Phase-solubility of everolimus in aqueous cyclodextrin solutions; format: physicochemical; conditions: pure aqueous cyclodextrin solutions, 25 °C
Experimental: Everolimus was added to each cyclodextrin solution in excess, the samples were continuously agitated on a magnetic stirrer for 24 hours.

| SMILES | Osmolality [2] [mOsmol/kg] | Particle size Dx(10) [2] [μm] | Particle size Dx(50) [2] [μm] | Particle size Dx(90) [2] [μm] | Viscosity at 15 rpm [2] [cP] | pH [2] | affinity for everolimus [6] | Drug LogP [1] | topical bioavailability [3] | stability in microemulsion eye drops ([4]; microemulsion eye drops containing about 25% water) | chemical stability of derivative [4] | solubility in water [5] |
| --- | --- | --- | --- | --- | --- | --- | --- | --- | --- | --- | --- | --- |
| C[C@@H]1C[C@H]2[C@@H]3CCC4=CC(=O)C=C[C@]4(C)[C@@]3(F)[C@@H](O)C[C@]2(C)[C@@]1(O)C(=O)CO [Dexamethasone, dexamethasone] | 297 | 1.4 | 4.6 | 16 | 17.7 | 6.4 | – | 1.9 | – | – | – | – |
| CO[C@H]1C[C@@H]2CC[C@@H](C)[C@@](O)(O2)C(=O)C(=O)N2CCCC[C@H]2C(=O)O[C@H]([C@H](C)C[C@@H]2CC[C@@H](OC(=O)C(C)(CO)CO)[C@H](OC)C2)CC(=O)[C@H](C)/C=C(\C)[C@@H](O)[C@@H](OC)C(=O)[C@H](C)C[C@H](C)/C=C/C=C/C=C/1C [Temsirolimus, 42-[3-hydroxy-2-(hydroxymethyl)-2-methylpropanoate]-rapamycin] | – | – | – | – | – | – | – | – | – | – | do not improve the chemical stability | about 7 mg/mL |
| CO[C@H]1C[C@@H]2CC[C@@H](C)[C@@](O)(O2)C(=O)C(=O)N2CCCC[C@H]2C(=O)O[C@H]([C@H](C)C[C@@H]2CC[C@@H](OP(C)(C)=O)[C@H](OC)C2)CC(=O)[C@H](C)/C=C(\C)[C@@H](O)[C@@H](OC)C(=O)[C@H](C)C[C@H](C)/C=C/C=C/C=C/1C [deforolimus, 42-(dimethylphosphinate)-rapamycin] | – | – | – | – | – | – | – | – | – | – | do not improve the chemical stability | about 7 mg/mL |
| OC[C@H]1O[C@@H]2O[C@H]3[C@H](O)[C@@H](O)[C@@H](O[C@H]4[C@H](O)[C@@H](O)[C@@H](O[C@H]5[C@H](O)[C@@H](O)[C@@H](O[C@H]6[C@H](O)[C@@H](O)[C@@H](O[C@H]7[C@H](O)[C@@H](O)[C@@H](O[C@H]1[C@H](O)[C@H]2O)O[C@@H]7CO)O[C@@H]6CO)O[C@@H]5CO)O[C@@H]4CO)O[C@@H]3CO [α-cyclodextrin] | – | – | – | – | – | – | lowest affinity | – | – | – | – | – |

Further lines, with some results ahead:

| Osmolality [2] [mOsmol/kg] | Particle size Dx(10) [2] [μm] | Particle size Dx(50) [2] [μm] | Particle size Dx(90) [2] [μm] | Viscosity at 15 rpm [2] [cP] | pH [2] | affinity for everolimus [6] | SMILES | Drug LogP [1] | topical bioavailability [3] | stability in microemulsion eye drops ([4]; microemulsion eye drops containing about 25% water) | chemical stability of derivative [4] | solubility in water [5] |
| --- | --- | --- | --- | --- | --- | --- | --- | --- | --- | --- | --- | --- |
| 282 | 1.5 | 6.2 | 24 | 16.1 | 6.5 | – | CCOC(=O)O[C@]1(C(=O)OCCl)CC[C@H]2[C@@H]3CCC4=CC(=O)C=C[C@]4(C)[C@H]3[C@@H](O)C[C@@]21C [Loteprednol etabonate, loteprednol etabonate] | 3.9 | – | – | – | – |
| 309 | 1.5 | 5.7 | 25 | 16.5 | 5.9 | – | CO[C@H]1C[C@@H]2CC[C@@H](C)[C@@](O)(O2)C(=O)C(=O)N2CCCC[C@H]2C(=O)O[C@H]([C@H](C)C[C@@H]2CC[C@@H](O)[C@H](OC)C2)CC(=O)[C@H](C)/C=C(\C)[C@@H](O)[C@@H](OC)C(=O)[C@H](C)C[C@H](C)/C=C/C=C/C=C/1C [Sirolimus, sirolimus] | 6.0 | very low | stable | – | – |
| 304 | 1.5 | 5.3 | 22 | 15.7 | 5.0 | – | C=CC[C@@H]1/C=C(\C)C[C@H](C)C[C@H](OC)[C@H]2O[C@@](O)(C(=O)C(=O)N3CCCC[C@H]3C(=O)O[C@H](/C(C)=C/[C@@H]3CC[C@@H](O)[C@H](OC)C3)[C@H](C)[C@@H](O)CC1=O)[C@H](C)C[C@@H]2OC [Tacrolimus, tacrolimus] | – | – | – | – | – |
